Patent US11053204B2, “Pyrimidinyloxy benzene derivatives as herbicides” (FMC Corporation, priority 2015, dated 2021)

Tests used:
Assay type in all cases: in vivo
[1] = test system: galium (catchweed bedstraw, Galium aparine); test: Test C preemergence, plant response rating
[2] = test system: oat, wild (wild oat Avena fatua); test: Test C preemergence, plant response rating
kochia (Kochia scoparia) = test: Test C preemergence, plant response rating
[3] = test system: surinam grass (Brachiaria decumbens); test: Test C preemergence, plant response rating
[4] = test system: velvetleaf (Abutilon theophrasti); test: Test C postemergence, plant response rating; settings: Abutilon theophrasti, post-emergence
How it was run: (§1)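 Pre-emergence: seeds sown in loam soil–sand blend or silt loam and sprayed with test chemicals in a non-phytotoxic solvent mixture with surfactant. Post-emergence: plants 2 to 18 cm (1- to 4-leaf stage) in peat-based potting medium, same formulation. Greenhouse 13 to 15 d; visual rating 0 (no effect) to 100 (complete control) versus controls.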

[5] = test system: oilseed rape (Brassica napus); test: Test C postemergence, plant response rating; settings: Brassica napus, post-emergence
How it was run: as §1

[6] = test system: blackgrass (Alopecurus myosuroides); test: Test C postemergence, plant response rating; settings: Alopecurus myosuroides, post-emergence
How it was run: as §1

[7] = test system: waterhemp (common waterhemp, Amaranthus rudis); test: Test C postemergence, plant response rating
How it was run: as §1

[8] = test system: oat, wild (wild oat Avena fatua); test: Test C postemergence, plant response rating; settings: Avena fatua, post-emergence
How it was run: as §1

[9] = test system: ragweed (common ragweed, Ambrosia elatior); test: Test C postemergence, plant response rating; settings: Ambrosia artemisiifolia, post-emergence
How it was run: as §1

[10] = test system: galium (catchweed bedstraw, Galium aparine); test: Test C postemergence, plant response rating; settings: Galium, post-emergence
How it was run: as §1

soybean (Glycine max) = test: Test C postemergence, plant response rating; settings: Glycine max, post-emergence
How it was run: as §1

corn (Zea mays) = test: Test C postemergence, plant response rating; settings: Zea mays, post-emergence
How it was run: as §1

[11] = test system: crabgrass, large (large crabgrass, Digitaria sanguinalis); test: Test C postemergence, plant response rating; settings: Digitaria sanguinalis, post-emergence
How it was run: as §1

[12] = test system: nutsedge, yellow (yellow nutsedge, Cyperus esculentus); test: Test C postemergence, plant response rating; settings: Cyperus, post-emergence
How it was run: as §1

[13] = test system: wheat (winter wheat, Triticum aestivum); test: Test C postemergence, plant response rating; settings: Triticum aestivum, post-emergence
How it was run: as §1

[14] = test system: lambsquarters (Chenopodium album); test: Test C postemergence, plant response rating; settings: Chenopodium album, post-emergence
How it was run: as §1

[15] = test system: ryegrass, Italian (Italian ryegrass, Lolium multiflorum); test: Test C postemergence, plant response rating; settings: Lolium multiflorum, post-emergence
How it was run: as §1

[16] = test system: foxtail, giant (giant foxtail, Setaria faberii); test: Test C postemergence, plant response rating; settings: Setaria faberi, post-emergence
How it was run: as §1

[17] = 125 g ai/ha, scale 0 to 100 (0 no effect, 100 complete control)
[18] = 62 g ai/ha, scale 0 to 100 (0 no effect, 100 complete control)

SMILES: O=C(CCC(F)(F)F)c1c(Cl)cccc1Oc1ncc(Cl)cn1 [Compound 107, 1-[2-chloro-6-[(5-chloro-2-pyrimidinyl)oxy]phenyl]-4,4,4-trifluoro-1-butanone]
- Plant response rating, Galium ([1]; 31 g ai/ha, scale 0 to 100): 60
- Plant response rating, Galium ([1]; 62 g ai/ha, scale 0 to 100): 90
- Plant response rating, Galium ([1]; 125 g ai/ha, scale of 0 to 100): 95
- Plant response rating, Oat, Wild ([2]; 31 g ai/ha, scale 0 to 100): 5
- Plant response rating, Oat, Wild ([2]; 62 g ai/ha, scale 0 to 100): 30
- Plant response rating, Oat, Wild ([2]; 125 g ai/ha, scale of 0 to 100): 65
- Plant response rating, Kochia (kochia (Kochia scoparia); 31 g ai/ha, scale 0 to 100): 100
- Plant response rating, Kochia (kochia (Kochia scoparia); 62 g ai/ha, scale 0 to 100): 100
- Plant response rating, Kochia (kochia (Kochia scoparia); 125 g ai/ha, scale of 0 to 100): 100
- Plant response rating, Surinam Grass ([3]; 31 g ai/ha, scale 0 to 100): 60
- Plant response rating, Surinam Grass ([3]; 62 g ai/ha, scale 0 to 100): 98
- Plant response rating, Surinam Grass ([3]; 125 g ai/ha, scale of 0 to 100): 98
- pest or weed control at 16 g/ha ([4]; 16 g ai/ha, scale of 0 to 100): 60%
- pest or weed control at 31 g/ha ([4]; 31 g ai/ha, scale 0 to 100): 65%
- pest or weed control at 125 g/ha [4, 17]: 90%
- pest or weed control at 62 g/ha ([4]; rate not given, scale 0 to 100, read-out: Plant response rating, Velvetleaf): 75%
- plant injury at 16 g/ha ([5]; 16 g ai/ha, scale of 0 to 100): 65%
- plant injury at 31 g/ha ([5]; 31 g ai/ha, scale 0 to 100): 80%
- plant injury at 62 g/ha [5, 18]: 95%
- plant injury at 125 g/ha [5, 17]: 98%
- pest or weed control at 16 g/ha ([6]; 16 g ai/ha, scale 0 to 100): 5%
- pest or weed control at 31 g/ha ([6]; 31 g ai/ha, scale 0 to 100): 20%
- pest or weed control at 62 g/ha [6, 18]: 20%
- pest or weed control at 125 g/ha [6, 17]: 60%
- Plant response rating, Waterhemp ([7]; 16 g ai/ha, scale of 0 to 100): 95
- Plant response rating, Waterhemp ([7]; 31 g ai/ha, scale 0 to 100): 98
- Waterhemp plant response rating [7, 17]: 100
- pest or weed control at 16 g/ha ([8]; 16 g ai/ha, scale of 0 to 100): 5%
- pest or weed control at 31 g/ha ([8]; 31 g ai/ha, scale 0 to 100): 40%
- pest or weed control at 62 g/ha [8, 18]: 35%
- pest or weed control at 125 g/ha [8, 17]: 45%
- pest or weed control at 16 g/ha ([9]; 16 g ai/ha, scale of 0 to 100): 25%
- pest or weed control at 31 g/ha ([9]; 31 g ai/ha, scale 0 to 100): 35%
- pest or weed control at 62 g/ha [9, 18]: 35%
- pest or weed control at 125 g/ha [9, 17]: 45%
- pest or weed control at 16 g/ha ([10]; 16 g ai/ha, scale of 0 to 100): 75%
- pest or weed control at 31 g/ha ([10]; 31 g ai/ha, scale 0 to 100): 80%
- pest or weed control at 62 g/ha [10, 18]: 90%
- pest or weed control at 125 g/ha [10, 17]: 95%
- plant injury at 16 g/ha (soybean (Glycine max); 16 g ai/ha, scale of 0 to 100): 50%
- plant injury at 31 g/ha (soybean (Glycine max); 31 g ai/ha, scale 0 to 100): 40%
- plant injury at 62 g/ha (soybean (Glycine max); [18]): 95%
- plant injury at 125 g/ha (soybean (Glycine max); [17]): 95%
- Corn plant response rating (crop injury, 0 = no effect, 100 = complete kill) at 16 g/ha (corn (Zea mays); 16 g ai/ha, scale of 0 to 100): 10%
- Corn plant response rating (crop injury, 0 = no effect, 100 = complete kill) at 31 g/ha (corn (Zea mays); 31 g ai/ha, scale 0 to 100): 20%
- plant injury at 62 g/ha (corn (Zea mays); [18]): 20%
- plant injury at 125 g/ha (corn (Zea mays); [17]): 30%
- pest or weed control at 16 g/ha ([11]; 16 g ai/ha, scale of 0 to 100): 10%
- pest or weed control at 31 g/ha ([11]; 31 g ai/ha, scale 0 to 100): 10%
- pest or weed control at 62 g/ha [11, 18]: 30%
- pest or weed control at 125 g/ha [11, 17]: 60%
- pest or weed control at 16 g/ha ([12]; 16 g ai/ha, scale of 0 to 100): 5%
- pest or weed control at 31 g/ha ([12]; 31 g ai/ha, scale 0 to 100): 5%
- pest or weed control at 62 g/ha [12, 18]: 5%
- pest or weed control at 125 g/ha [12, 17]: 5%
- plant injury at 16 g/ha ([13]; 16 g ai/ha, scale of 0 to 100): 5%
- plant injury at 31 g/ha ([13]; 31 g ai/ha, scale 0 to 100): 5%
- plant injury at 125 g/ha [13, 17]: 30%
- plant injury at 62 g/ha ([13]; rate not given, scale 0 to 100, read-out: Plant response rating, Wheat): 10%
- pest or weed control at 16 g/ha ([14]; 16 g ai/ha, scale of 0 to 100): 80%
- pest or weed control at 31 g/ha ([14]; 31 g ai/ha, scale 0 to 100): 85%
- pest or weed control at 62 g/ha [14, 18]: 100%
- pest or weed control at 125 g/ha [14, 17]: 100%
- pest or weed control at 16 g/ha ([15]; 16 g ai/ha, scale of 0 to 100): 5%
- pest or weed control at 31 g/ha ([15]; 31 g ai/ha, scale 0 to 100): 35%
- pest or weed control at 62 g/ha [15, 18]: 20%
- pest or weed control at 125 g/ha [15, 17]: 50%
- pest or weed control at 16 g/ha ([16]; 16 g ai/ha, scale of 0 to 100): 10%
- pest or weed control at 31 g/ha ([16]; 31 g ai/ha, scale 0 to 100): 10%
- pest or weed control at 62 g/ha [16, 18]: 20%
- pest or weed control at 125 g/ha [16, 17]: 25%
